Strand notation (5' to 3'): a small letter for the sugar, then the base; units joined by * are phosphorothioate-linked, units joined directly phosphodiester-linked; [ ] holds rarer units or linkages, { } end groups; capitals alone tell only the bases. k = constrained ethyl (cEt); [5mC] = 5-methylcytosine; d = 2'-deoxy (DNA)
System: Yap1 mRNA
Assay: Antisense inhibition of human Yap1 in A-431 cells by cEt gapmers, single dose (Example 4, RTS4814)
Type: cell-based
Method: Modified oligonucleotides were designed to target a Yap1 nucleic acid and were tested for their effect on Yap1 mRNA level in vitro. The modified oligonucleotides were tested in a series of experiments that had similar culture conditions. Cultured A-431 cells at a density of 5,000 cells per well were treated using free uptake with 2,000 nM of modified oligonucleotide. After a treatment period of approximately 48 hours, RNA was isolated from the cells and Yap1 mRNA levels were measured by quantitative real-time RTPCR. Human primer probe set RTS4814 was used to measure mRNA levels. Yap1 mRNA levels were normalized to total RNA content, as measured by RIBOGREEN®. Results are presented in the tables below as percent control of the amount of Yap1 mRNA relative to untreated control cells (% UTC). The modified oligonucleotides with percent control values marked with an asterisk (*) target the amplicon region of the primer probe set. Additional assays may be used to measure the potency and efficacy of the modified oligonucleotides targeting the amplicon region.
The newly designed modified oligonucleotides in the Tables below were designed as 3-10-3 cEt gapmers. The gapmers are 16 nucleosides in length, wherein the central gap segment comprises of ten 2′-deoxynucleosides and is flanked by wing segments on the 5′ direction and the 3′ direction comprising three nucleosides each. Each nucleoside in the 5′ wing segment and each nucleoside in the 3′ wing segment has a cEt sugar modification. The internucleoside linkages throughout each gapmer are phosphorothioate (P═S) linkages. All cytosine residues throughout each gapmer are 5-methylcytosines.
“Start site” indicates the 5′-most nucleoside to which the gapmer is targeted in the human gene sequence. “Stop site” indicates the 3′-most nucleoside to which the gapmer is targeted human gene sequence. […] Activity of the modified oligonucleotide may be defined in a different experiment.

[1] = Yap1 mRNA remaining as percent of untreated control, 3-10-3 cEt gapmers, A-431 cells, Table 37
[2] = Table 14, A-431 cells, 5,000 cells per well, free uptake, 2,000 nM, approximately 48 hours, RTS4814, normalized to RIBOGREEN, Yap1 mRNA relative to untreated control, * = targets amplicon region of primer probe set
[3] = Yap1 mRNA remaining as percent of untreated control, 3-10-3 cEt gapmers, A-431 cells, Table 36
[4] = Table 17, A-431 cells, 5,000 cells per well, free uptake, 2,000 nM, approximately 48 hours, RTS4814, normalized to RIBOGREEN, Yap1 mRNA relative to untreated control cells
[5] = Table 15, A-431 cells, 5,000 cells per well, free uptake, 2,000 nM, approximately 48 hours, RTS4814, normalized to RIBOGREEN, Yap1 mRNA relative to untreated control, * = targets amplicon region of primer probe set
[6] = Table 16, A-431 cells, 5,000 cells per well, free uptake, 2,000 nM, approximately 48 hours, RTS4814, normalized to RIBOGREEN, Yap1 mRNA relative to untreated control cells

“1076151 (kT*kA*kT*dT*dT*dA*dT*dT*dA*dA*d[5mC]*dT*d[5mC]*kA*k[5mC]*kG; antisense) [compound 1076151]” was tested, and the “YAP1 (% UTC)” value [1] was 14 % UTC.
In the case of “1075799 (k[5mC]*k[5mC]*kT*d[5mC]*dA*dA*d[5mC]*dA*d[5mC]*dA*dT*dT*dT*kG*kA*kG; antisense) [compound 1075799]”, the “YAP1 (% UTC)” value [1] is reported as 85 % UTC.
“1074752 (k[5mC]*kA*kT*dT*dA*dG*dG*dA*dA*d[5mC]*dA*dA*dG*kG*kA*k[5mC]; antisense) [Compound 1074752]” was tested, and the “YAP1 (% UTC)” value [2] was 10 % UTC.
In the case of “1074902 (antisense k[5mC]*kT*kA*dT*dT*dA*dA*d[5mC]*dT*dT*dT*dT*dG*kG*kG*k[5mC]) [compound 1074902]”, the “YAP1 (% UTC)” value [3] is reported as 54 % UTC.
“1074656 (antisense kG*kA*k[5mC]*dT*dT*dA*dA*dT*dT*d[5mC]*dA*dA*dG*kA*kT*kT) [Compound 1074656]” was tested, and the “YAP1 (% UTC)” value [2] was 31 % UTC.
With “1074243 (antisense kT*k[5mC]*kT*dG*dA*d[5mC]*d[5mC]*dA*dG*dA*dA*dG*dA*kT*kG*kT) [Compound 1074243]” the “YAP1 (% UTC)” value [4] was 60 % UTC.
“1075651 (kT*kA*kT*dA*dT*dT*dA*d[5mC]*dA*dA*dT*d[5mC]*d[5mC]*k[5mC]*kA*kG; antisense) [Compound 1075651]” was tested, and the “YAP1 (% UTC)” value [4] was 57 % UTC.
For “1076355 (k[5mC]*kT*kA*d[5mC]*dA*dA*dA*dA*dG*dA*dG*d[5mC]*dT*kA*kT*kG; antisense) [Compound 1076355]”, the “YAP1 (% UTC)” value [4] was 92 % UTC.
For “1076225 (kA*kT*kA*dT*dA*dA*dA*d[5mC]*d[5mC]*dT*dT*dG*d[5mC]*kT*kA*k[5mC]; antisense) [Compound 1076225]”, the “YAP1 (% UTC)” value [5] was 66 % UTC.
With “1074998 (antisense k[5mC]*kA*k[5mC]*dG*d[5mC]*dG*dA*d[5mC]*d[5mC]*dT*dA*d[5mC]*dT*kA*kA*kG) [compound 1074998]” the “YAP1 (% UTC)” value [3] was 61 % UTC.
“1075234 (antisense kG*kT*kA*dA*dA*dT*dA*d[5mC]*dT*d[5mC]*dT*dA*dG*kT*kT*k[5mC]) [Compound 1075234]” was tested, and the “YAP1 (% UTC)” value [6] was 22 % UTC.
With “1074529 (kG*k[5mC]*kA*dG*dA*d[5mC]*dT*dG*d[5mC]*d[5mC]*d[5mC]*d[5mC]*dA*kA*k[5mC]*k[5mC]; antisense) [Compound 1074529]” the “YAP1 (% UTC)” value [5] was 50 % UTC.
With “1076386 (kA*kG*kT*dT*dA*dT*dA*dA*d[5mC]*dA*dG*dT*dG*kT*kA*kA; antisense) [Compound 1076386]” the “YAP1 (% UTC)” value [6] was 7 % UTC.
For “1075585 (kA*kA*kA*dT*dA*dA*dT*dT*dG*dA*d[5mC]*d[5mC]*dT*kA*kG*k[5mC]; antisense) [Compound 1075585]”, the “YAP1 (% UTC)” value [5] was 52 % UTC.
For “1074530 (k[5mC]*kT*kA*dA*dA*d[5mC]*dT*dA*d[5mC]*dT*dT*d[5mC]*dA*kA*kA*k[5mC]; antisense) [Compound 1074530]”, the “YAP1 (% UTC)” value [6] was 88 % UTC.

Reference: patent US11214803B2, “Modulators of YAP1 expression” (Ionis Pharmaceuticals, Inc., priority 2019, dated 2022)
